Source: US8574608B2, “Bactericidal silver surfactant delivery into coating and polymer compositions” (Eastern Michigan Universtity, priority 2007, dated 2013)
“And” between values parts separate entries of the source, which are not always exact repeats. Equal entries are not always repeated.

Columns and labels:
[1] = test system: E. coli; assay: E. coli challenged by silver surfactants in laboratory acrylic paint; assay type: cell-based, Escherichia coli; details: 24 h contact time; for surviving bacteria (growth): laboratory solvent borne acrylate paint coating; for surviving bacteria (growth): key: A minus sign (−) denotes no growth; a plus sign (+) denotes confluent growth; a capital P (P) denotes particle growth
[2] = test system: S. aureus; assay: S. aureus challenged by silver surfactants in laboratory acrylic clearcoat; assay type: cell-based, Staphylococcus aureus; details: 24 h contact time; for surviving bacteria (growth): laboratory solvent borne acrylate clearcoat; for surviving bacteria (growth): key: A minus sign (−) denotes no growth; a plus sign (+) denotes confluent growth; a capital P (P) denotes particle growth
[3] = test system: E. coli; assay: E. coli challenged by silver surfactants in commercial alkyd paint; assay type: cell-based, Escherichia coli; details: alkyd resin paint coating, 24 h contact time; note: key: A minus sign (−) denotes no growth; a plus sign (+) denotes confluent growth; a capital P (P) denotes particle growth
[4] = test system: E. coli; assay: E. coli challenged by silver surfactants in commercial acrylic paint; assay type: cell-based, Escherichia coli; details: 24 h contact time; for surviving bacteria (growth): commercial solvent borne acrylate paint coating; for surviving bacteria (growth): key: A minus sign (−) denotes no growth; a plus sign (+) denotes confluent growth; a capital P (P) denotes particle growth
[5] = test system: E. coli; assay: E. coli challenged by silver surfactants in commercial 2K epoxy paint; assay type: cell-based, Escherichia coli; details: 24 h contact time; for surviving bacteria (growth): commercial 2K epoxy paint coating

Row | Compound | silver level with partial inhibition (only partial growth) ([1]; laboratory acrylic paint) [%] | surviving bacteria (growth) ([1]; 0.0012 weight % Ag in coating) | surviving bacteria (growth) ([1]; 0.003 weight % Ag in coating) | surviving bacteria (growth) ([1]; 0.006 weight % Ag in coating) | surviving bacteria (growth) ([1]; 0.06 weight % Ag in coating) | surviving bacteria (growth) ([1]; 0.12 weight % Ag in coating) | surviving bacteria (growth) ([2]; 0.0012 weight % Ag in coating) | surviving bacteria (growth) ([2]; 0.003 weight % Ag in coating) | surviving bacteria (growth) ([2]; 0.03 weight % Ag in coating) | surviving bacteria (growth) ([2]; 0.06 weight % Ag in coating) | surviving bacteria (growth) ([2]; 0.12 weight % Ag in coating) | surviving bacteria (growth) ([3]; 0.0012 weight % Ag in coating) | surviving bacteria (growth) ([3]; 0.003 weight % Ag in coating) | surviving bacteria (growth) ([3]; 0.006 weight % Ag in coating) | surviving bacteria (growth) ([3]; 0.012 weight % Ag in coating) | surviving bacteria (growth) ([3]; 0.03 weight % Ag in coating) | surviving bacteria (growth) ([3]; 0.06 weight % Ag in coating) | surviving bacteria (growth) ([3]; 0.12 weight % Ag in coating) | surviving bacteria (growth) ([4]; 0.0012 weight % Ag in coating) | surviving bacteria (growth) ([4]; 0.003 weight % Ag in coating) | further results
1 | silver linearalkanebenzene sulfonate [AgLABS] | 0.03 | + | + | + | − | − | − | − | − | − | − | + | + | + | + | − | − | − | + | + | surviving bacteria (growth) ([1]; 0.012 weight % Ag in coating): +; silver level at which partial growth is observed ([2]; laboratory acrylic clearcoat): 0.012 % Ag w/w and 0.006 % Ag w/w; silver level partially effective ([4]; commercial acrylic paint): 0.03 % Ag w/w; surviving bacteria (growth) ([4]; 0.006 weight % Ag in coating): +; surviving bacteria (growth) ([4]; 0.012 weight % Ag in coating): +; surviving bacteria (growth) ([4]; 0.06 weight % Ag in coating): −; surviving bacteria (growth) ([4]; 0.12 weight % Ag in coating): −; surviving bacteria (growth) ([5]; 0.0012 weight % Ag in coating): +; surviving bacteria (growth) ([5]; 0.003 weight % Ag in coating): +; surviving bacteria (growth) ([5]; 0.006 weight % Ag in coating): +; surviving bacteria (growth) ([5]; 0.012 weight % Ag in coating): +; surviving bacteria (growth) ([5]; 0.03 weight % Ag in coating): −; surviving bacteria (growth) ([5]; 0.06 weight % Ag in coating): −; surviving bacteria (growth) ([5]; 0.12 weight % Ag in coating): −; silver level giving complete inhibition of growth ([5]; commercial 2K epoxy paint): 0.03 % w/w
2 | CCCCCCCCCCCCOS(=O)(=O)[O-].[Ag+] [AgDS, Silver dodecylsufate] | 0.012 | + | + | + | − | − | − | − | − | − | − | + | + | + | + | − | − | − | + | + | silver level effective at preventing any growth ([1]; laboratory acrylic paint): 0.03 % w/w; surviving bacteria (growth) ([1]; 0.03 weight % Ag in coating): −; surviving bacteria (growth) ([2]; 0.006 weight % Ag in coating): −; surviving bacteria (growth) ([2]; 0.012 weight % Ag in coating): −; silver level effective at preventing any growth ([4]; commercial acrylic paint): 0.03 % w/w; surviving bacteria (growth) ([4]; 0.006 weight % Ag in coating): +; surviving bacteria (growth) ([4]; 0.012 weight % Ag in coating): +; surviving bacteria (growth) ([4]; 0.03 weight % Ag in coating): −; surviving bacteria (growth) ([4]; 0.06 weight % Ag in coating): −; surviving bacteria (growth) ([4]; 0.12 weight % Ag in coating): −; surviving bacteria (growth) ([5]; 0.0012 weight % Ag in coating): +; surviving bacteria (growth) ([5]; 0.003 weight % Ag in coating): +; surviving bacteria (growth) ([5]; 0.006 weight % Ag in coating): +; surviving bacteria (growth) ([5]; 0.03 weight % Ag in coating): −; surviving bacteria (growth) ([5]; 0.06 weight % Ag in coating): −; surviving bacteria (growth) ([5]; 0.12 weight % Ag in coating): −; silver level giving complete inhibition of growth ([5]; commercial 2K epoxy paint): 0.03 % w/w; silver level partially effective ([5]; commercial 2K epoxy paint): 0.012 % w/w
